Results as given in US8039496B2, “Therapeutic compounds” (Allergan, Inc., priority 2007, dated 2011).
Where two headings read alike, the source gives them in different places.

Assays:
hEP2 [1] = molecular target: T1, hEP2 (Homo sapiens, UniProt P43116); assay: hEP2 flipr functional assay; assay type: cell-based
Excerpt: (§1) U.S. patent application Ser. No. 11/553,143, filed on Oct. 26, 2006, describes the methods used to obtain the in vitro data in the table below.

hEP2 [2] = molecular target: T1, hEP2; assay: hEP2 cAMP functional assay; assay type: cell-based
Excerpt: as §1

hEP2 [3] = molecular target: T1, hEP2; assay: hEP2 binding (Ki)
Excerpt: as §1

hEP4 [4] = molecular target: T2, hEP4 (Homo sapiens, UniProt P35408); assay: hEP4 flipr functional assay; assay type: cell-based
Excerpt: as §1

hEP4 [5] = molecular target: T2, hEP4; assay: hEP4 binding (Ki)
Excerpt: as §1

normotensive dogs [6] = assay: Intraocular pressure in normotensive dogs; assay type: in vivo; conditions: Canis lupus familiaris, topical, 120 h, once daily for 5 days, read-out: maximum IOP decrease from baseline (percent)
Experimental: (§2) U.S. Pat. No. 7,091,231 describes the methods used for these in vivo tests. 5-{3-[1R,2S,3R,5R)-5-Chloro-2-(3,5-dichloro-phenoxymethyl)-3-hydroxy-cyclopentyl]-propyl}-thiophene-2-carboxylic acid was tested at multiple concentrations in normotensive dogs, dosing once daily for 5 days. At 0.1%, the maximum intraocular pressure (IOP) decrease from baseline was 7.5 mmHg (48%) at 30 h; the maximum ocular surface hyperemia (OSH) score was 2.75 at 26 h. At 0.01%, the maximum IOP decrease from baseline was 7.5 mmHg (43%) at 76 h; the maximum OSH score was 2.0 at 26 h. At 0.005%, the maximum IOP decrease from baseline was 6.6 mmHg (35%) at 78 h; the maximum OSH score was 1.75 at 74 h. This compound was also tested in laser-induced hypertensive monkeys, using one single day dose. At 0.01%, the maximum IOP decrease from baseline was 20.2 mmHg (53%) at 24 h.

normotensive dogs [7] = assay: Ocular surface hyperemia in normotensive dogs; assay type: in vivo; design: scale not given here; conditions: once daily for 5 days
Experimental: as §2

hEP3 = molecular target: T3, hEP3 (Homo sapiens, UniProt P43115); assay: Other receptors: hEP3 / hEP3A; assay type: cell-based
T3 sequence (P43115 1-390): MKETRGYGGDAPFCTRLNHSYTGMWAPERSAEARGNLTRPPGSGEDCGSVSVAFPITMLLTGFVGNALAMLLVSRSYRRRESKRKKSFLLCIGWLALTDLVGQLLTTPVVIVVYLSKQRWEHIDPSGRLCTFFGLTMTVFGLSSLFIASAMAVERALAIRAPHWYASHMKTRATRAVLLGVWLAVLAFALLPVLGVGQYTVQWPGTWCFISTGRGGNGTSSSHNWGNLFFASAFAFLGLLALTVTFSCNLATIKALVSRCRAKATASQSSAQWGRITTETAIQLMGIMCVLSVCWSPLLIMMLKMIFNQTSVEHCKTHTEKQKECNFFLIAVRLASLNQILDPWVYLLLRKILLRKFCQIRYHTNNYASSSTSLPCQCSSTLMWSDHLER
Excerpt: as §1

[8] = the 2nd table, read-out: hEP2 flipr EC50
[9] = the 2nd table, read-out: hEP2 cAMP EC50
[10] = the 2nd table, read-out: hEP2 Ki
[11] = the 2nd table, read-out: hEP4 flipr EC50
[12] = the 2nd table, read-out: hEP4 Ki
[13] = the 3rd table, read-out: EP2 data flipr EC50
[14] = the 3rd table, read-out: EP2 data cAMP EC50
[15] = the 3rd table, read-out: EP2 data Ki
[16] = the 3rd table, read-out: EP4 data flipr EC50
[17] = the 3rd table, read-out: EP4 data KI

T2 sequence (P35408 whole entry): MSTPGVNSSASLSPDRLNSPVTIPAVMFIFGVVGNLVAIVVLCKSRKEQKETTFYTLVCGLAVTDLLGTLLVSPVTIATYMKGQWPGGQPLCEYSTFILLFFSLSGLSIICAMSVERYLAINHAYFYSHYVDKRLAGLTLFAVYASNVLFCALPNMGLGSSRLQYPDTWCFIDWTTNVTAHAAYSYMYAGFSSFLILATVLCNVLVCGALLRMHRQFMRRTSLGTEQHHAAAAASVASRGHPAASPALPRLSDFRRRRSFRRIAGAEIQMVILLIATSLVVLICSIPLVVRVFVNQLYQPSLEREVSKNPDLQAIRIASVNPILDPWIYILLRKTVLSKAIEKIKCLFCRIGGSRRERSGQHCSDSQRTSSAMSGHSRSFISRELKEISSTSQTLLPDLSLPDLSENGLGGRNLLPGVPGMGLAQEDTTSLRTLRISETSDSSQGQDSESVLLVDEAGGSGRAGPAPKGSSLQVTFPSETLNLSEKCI
T1 sequence (P43116 whole entry): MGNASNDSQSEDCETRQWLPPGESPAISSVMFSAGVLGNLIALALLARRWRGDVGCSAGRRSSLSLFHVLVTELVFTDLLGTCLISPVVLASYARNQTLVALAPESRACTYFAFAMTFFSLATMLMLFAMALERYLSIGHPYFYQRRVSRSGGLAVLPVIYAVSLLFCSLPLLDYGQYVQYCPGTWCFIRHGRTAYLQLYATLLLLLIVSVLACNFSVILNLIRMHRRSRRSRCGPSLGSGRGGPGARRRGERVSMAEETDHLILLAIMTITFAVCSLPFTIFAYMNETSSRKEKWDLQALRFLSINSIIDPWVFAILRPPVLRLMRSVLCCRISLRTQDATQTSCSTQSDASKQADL

## O=C(O)c1ccc(CCC[C@@H]2[C@@H](COc3cc(Cl)cc(Cl)c3)[C@H](O)C[C@H]2F)s1 [5-{3-[(1R,2S,3R,5R)-2-(3,5-Dichloro-phenoxymethyl)-5-fluoro-3-hydroxy-cyclopentyl]-propyl}-thiophene-2-carboxylic acid]
hEP2 [1]; [8]
  EC50: 0.083 µM
hEP2 [2]; [9]
  EC50: 0.7 nM
hEP2 [3]; [10]
  Ki: 8 nM
hEP4 [4]; [11]
  EC50: > 10 µM
hEP4 [5]; [12]
  Ki: 310 nM

## O=C(O)c1ccc(CCC[C@@H]2[C@@H](COc3ccc4c(c3)CCCC4)[C@H](O)C[C@H]2Cl)s1 [5-(3-((1R,2S,3R,5R)-5-chloro-3-hydroxy-2-((5,6,7,8-tetrahydronaphthalen-2-yloxy)methyl)cyclopentyl)propyl)thiophene-2-carboxylic acid]
hEP2 [1]; [13]
  EC50: 2.49 µM
hEP2 [2]; [14]
  EC50: 12 nM
hEP2 [3]; [15]
  Ki: 38 nM
hEP4 [4]; [16]
  EC50: > 10 µM
hEP4 [5]; [17]
  Ki: 800 nM

## O=C(O)c1ccc(CCC[C@@H]2[C@@H](COc3cc(Cl)cc(CO)c3)CC[C@H]2Cl)s1 [5-{3-[(1R,2R,5S)-2-Chloro-5-(3-chloro-5-hydroxymethyl-phenoxymethyl)-cyclopentyl]-propyl}-thiophene-2-carboxylic acid]
hEP2 [1]; [8]
  EC50: 6.75 µM
hEP2 [2]; [9]
  EC50: 5.2 nM
hEP2 [3]; [10]
  Ki: 12 nM
hEP4 [4]; [11]
  EC50: > 10 µM
hEP4 [5]; [12]
  Ki: 197 nM

## Cc1cc(C)cc(OC[C@@H]2[C@@H](CCCc3ccc(C(=O)O)s3)[C@H](Cl)C[C@H]2O)c1 [Example 6, 5-{3-[(1R,2S,3R,5R)-5-Chloro-2-(3,5-dimethyl-phenoxymethyl)-3-hydroxy-cyclopentyl]-propyl}-thiophene-2-carboxylic acid]
Normotensive dogs [6]
  inhibition in vivo at 0.01 %: 33%
Normotensive dogs [7]; 0.01%
  maximum ocular surface hyperemia (OSH) score: 1.9

## CCc1cc(OC[C@@H]2[C@@H](CCCc3ccc(C(=O)O)s3)[C@H](Cl)C[C@H]2O)ccc1Cl [5-(3-((1R,2S,3R,5R)-5-chloro-2-((4-chloro-3-ethylphenoxy)methyl)-3-hydroxycyclopentyl)propyl)thiophene-2-carboxylic acid]
hEP2 [1]; [13]
  EC50: 31.4 µM
hEP2 [2]; [14]
  EC50: 0.4 nM
hEP2 [3]; [15]
  Ki: 2 nM
hEP4 [4]; [16]
  EC50: 26.5 µM
hEP4 [5]; [17]
  Ki: 177 nM

## O=C(O)c1ccc(CCC[C@@H]2[C@@H](COc3cc(F)cc(C(F)(F)F)c3)[C@H](O)C[C@H]2Cl)s1 [5-(3-((1R,2S,3R,5R)-5-chloro-2-((3-fluoro-5-(trifluoromethyl)phenoxy)methyl)-3-hydroxycyclopentyl)propyl)thiophene-2-carboxylic acid]
hEP2 [1]; [13]
  EC50: 1.15 µM
hEP2 [2]; [14]
  EC50: 0.2 nM
hEP2 [3]; [15]
  Ki: 2.4 nM
hEP4 [4]; [16]
  EC50: 12.3 µM
hEP4 [5]; [17]
  Ki: 354 nM
hEP3; the 3rd table, read-out: Other Receptors (ED50 in nM) hEP3A
  EC50: 6820 nM

## CC(C)OC(=O)c1ccc(CCC[C@@H]2[C@@H](COc3cc(Cl)cc(CO)c3)[C@H](O)C[C@H]2Cl)s1 [Example 14, Isopropyl 5-{3-[(1R,2S,3R,5R)-5-Chloro-2-(3-chloro-5-hydroxymethyl-phenoxymethyl)-3-hydroxy-cyclopentyl]-propyl}-thiophene-2-carboxylate]
Normotensive dogs [6]
  inhibition in vivo at 0.1 %: 36%
Normotensive dogs [7]; 0.1%
  maximum ocular surface hyperemia (OSH) score: 1.9

## O=C(O)c1ccc(CCC[C@H]2C(=O)CC[C@@H]2COc2cc(Cl)cc(CO)c2)s1 [5-{3-[(1R,2S)-2-(3-Chloro-5-hydroxymethyl-phenoxymethyl)-5-oxo-cyclopentyl]-propyl}-thiophene-2-carboxylic acid]
hEP2 [1]; [8]
  EC50: 0.297 µM
hEP2 [2]; [9]
  EC50: 2 nM
hEP2 [3]; [10]
  Ki: 39 nM
hEP4 [4]; [11]
  EC50: > 10 µM
hEP4 [5]; [12]
  Ki: 179 nM

## O=C(O)c1ccc(CCC[C@@H]2[C@@H](COc3cc(Cl)cc(CO)c3)[C@H](O)C[C@H]2Cl)s1 [Example 5, 5-{3-[(1R,2S,3R,5R)-5-Chloro-2-(3-chloro-5-hydroxymethyl-phenoxymethyl)-3-hydroxy-cyclopentyl]-propyl}-thiophene-2-carboxylic acid]
Normotensive dogs [6]
  inhibition in vivo at 0.1 %: 34%
Normotensive dogs [7]; 0.1%
  maximum ocular surface hyperemia (OSH) score: 1.9

## CCCCCCCc1ccc(OC[C@@H]2[C@@H](CCCc3ccc(C(=O)O)s3)[C@H](Cl)C[C@H]2O)cc1 [5-(3-((1R,2S,3R,5R)-5-chloro-2-((4-heptylphenoxy)methyl)-3-hydroxycyclopentyl)propyl)thiophene-2-carboxylic acid]
hEP2 [1]; [13]
  EC50: 6.82 µM
hEP2 [2]; [14]
  EC50: 46 nM
hEP2 [3]; [15]
  Ki: 378 nM
hEP4 [4]; [16]
  EC50: > 10 µM
hEP4 [5]; [17]
  Ki: 4520 nM

## O=C(O)c1ccc(CCC[C@@H]2[C@@H](COc3ccc4ccccc4c3)[C@H](O)C[C@H]2Cl)s1 [5-(3-((1R,2S,3R,5R)-5-chloro-3-hydroxy-2-((naphthalen-2-yloxy)methyl)cyclopentyl)propyl)thiophene-2-carboxylic acid]
hEP2 [1]; [13]
  EC50: > 10 µM
hEP2 [2]; [14]
  EC50: 3 nM
hEP2 [3]; [15]
  Ki: 3 nM
hEP4 [4]; [16]
  EC50: > 10 µM
hEP4 [5]; [17]
  Ki: 227 nM

## O=C(O)c1ccc(CCC[C@@H]2[C@@H](COc3cc(Cl)cc(Cl)c3)[C@H](O)C[C@H]2Cl)s1 [drawing 35, 5-{3-[(1R,2S,3R,5R)-5-Chloro-2-(3,5-dichloro-phenoxymethyl)-3-hydroxy-cyclopentyl]-propyl}-thiophene-2-carboxylic acid]
hEP2 [1]; [8]
  EC50: 7.01 µM
hEP2 [2]; [9]
  EC50: 0.12 nM
hEP2 [3]; [10]
  Ki: 2 nM
hEP4 [4]; [11]
  EC50: > 10 µM
hEP4 [5]; [12]
  Ki: 366 nM

## Cc1cc(C)cc(OC[C@@H]2[C@@H](CCCc3ccc(C(=O)O)s3)[C@H](Cl)C[C@H]2O)c1 [drawing 37, 5-{3-[(1R,2S,3R,5R)-5-Chloro-2-(3,5-dimethyl-phenoxymethyl)-3-hydroxy-cyclopentyl]-propyl}-thiophene-2-carboxylic acid]
hEP2 [1]; [8]
  EC50: 0.031 µM
hEP2 [2]; [9]
  EC50: 0.2 nM
hEP2 [3]; [10]
  Ki: 2 nM
hEP4 [4]; [11]
  EC50: 2.94 µM
hEP4 [5]; [12]
  Ki: 158 nM

## N#C[C@@H]1C[C@@H](O)[C@H](COc2cc(Cl)cc(Cl)c2)[C@H]1CCCc1ccc(C(=O)O)s1 [Example 9, 5-{3-[(1S,2S,3R,5R)-5-Cyano-2-(3,5-dichloro-phenoxymethyl)-3-hydroxy-cyclopentyl]-propyl}-thiophene-2-carboxylic acid]
Normotensive dogs [6]
  inhibition in vivo at 0.01 %: 17%
Normotensive dogs [7]; 0.01%
  maximum ocular surface hyperemia (OSH) score: 1.2

## O=C(O)CCC/C=C\C[C@@H]1[C@@H](COc2cc(Cl)cc(Cl)c2)[C@H](O)C[C@H]1Cl [drawing 43, (Z)-7-[(1R,2S,3R,5R)-5-Chloro-2-(3,5-dichloro-phenoxymethyl)-3-hydroxy-cyclopentyl]-hept-5-enoic acid]
hEP3; the 2nd table, read-out: Other Receptors hEP3
  EC50: 1260 nM

## N#C[C@@H]1C[C@@H](O)[C@H](COc2cc(Cl)cc(Cl)c2)[C@H]1CCCc1ccc(C(=O)O)s1 [drawing 40, 5-{3-[(1S,2S,3R,5R)-5-Cyano-2-(3,5-dichloro-phenoxymethyl)-3-hydroxy-cyclopentyl]-propyl}-thiophene-2-carboxylic acid]
hEP2 [1]; [8]
  EC50: 0.015 µM
hEP2 [2]; [9]
  EC50: 0.2 nM
hEP2 [3]; [10]
  Ki: 3 nM
hEP4 [4]; [11]
  EC50: > 10 µM
hEP4 [5]; [12]
  Ki: 149 nM

## O=C(O)c1ccc(CCC[C@@H]2[C@@H](COc3cc(Cl)cc(CO)c3)[C@H](O)C[C@H]2Cl)s1 [drawing 36, 5-{3-[(1R,2S,3R,5R)-5-Chloro-2-(3-chloro-5-hydroxymethyl-phenoxymethyl)-3-hydroxy-cyclopentyl]-propyl}-thiophene-2-carboxylic acid]
hEP2 [1]; [8]
  EC50: 3.28 µM
hEP2 [2]; [9]
  EC50: 0.26 nM
hEP2 [3]; [10]
  Ki: 3 nM
hEP4 [4]; [11]
  EC50: > 10 µM

## CC(=O)OCCc1cc(Cl)cc(OC[C@@H]2[C@@H](C/C=C\CCCC(=O)O)[C@H](Cl)C[C@H]2O)c1 [(Z)-7-{(1R,2S,3R,5R)-2-[3-(2-Acetoxy-ethyl)-5-chloro-phenoxymethyl]-5-chloro-3-hydroxy-cyclopentyl}-hept-5-enoic acid]
hEP2 [1]; [8]
  EC50: 4.99 µM
hEP2 [2]; [9]
  EC50: 18 nM
hEP2 [3]; [10]
  Ki: 82 nM

## O=C(O)CCC/C=C\C[C@@H]1[C@@H](COc2cc(Cl)cc(Cl)c2)[C@H](O)C[C@H]1Cl [(Z)-7-[(1R,2S,3R,5R)-5-Chloro-2-(3,5-dichloro-phenoxymethyl)-3-hydroxy-cyclopentyl]-hept-5-enoic acid]
Normotensive dogs [7]; 0.05%
  maximum ocular surface hyperemia (OSH) score: 0.6
Normotensive dogs [7]; 0.1%
  maximum ocular surface hyperemia (OSH) score: 1.3
